The values that follow come from patent US9109004B2, “Progesterone receptor antagonists” (Bayer Intellectual Property GmbH, priority 2010, dated 2015).

The experiment addresses T1, human progesterone receptor A (Homo sapiens, UniProt P06401).
T1 construct: expressed in transfected cells; host or cells: SK-N-MC human neuroblastoma cells, stably transfected
T1 sequence (P06401 1-769 isoform P06401-2): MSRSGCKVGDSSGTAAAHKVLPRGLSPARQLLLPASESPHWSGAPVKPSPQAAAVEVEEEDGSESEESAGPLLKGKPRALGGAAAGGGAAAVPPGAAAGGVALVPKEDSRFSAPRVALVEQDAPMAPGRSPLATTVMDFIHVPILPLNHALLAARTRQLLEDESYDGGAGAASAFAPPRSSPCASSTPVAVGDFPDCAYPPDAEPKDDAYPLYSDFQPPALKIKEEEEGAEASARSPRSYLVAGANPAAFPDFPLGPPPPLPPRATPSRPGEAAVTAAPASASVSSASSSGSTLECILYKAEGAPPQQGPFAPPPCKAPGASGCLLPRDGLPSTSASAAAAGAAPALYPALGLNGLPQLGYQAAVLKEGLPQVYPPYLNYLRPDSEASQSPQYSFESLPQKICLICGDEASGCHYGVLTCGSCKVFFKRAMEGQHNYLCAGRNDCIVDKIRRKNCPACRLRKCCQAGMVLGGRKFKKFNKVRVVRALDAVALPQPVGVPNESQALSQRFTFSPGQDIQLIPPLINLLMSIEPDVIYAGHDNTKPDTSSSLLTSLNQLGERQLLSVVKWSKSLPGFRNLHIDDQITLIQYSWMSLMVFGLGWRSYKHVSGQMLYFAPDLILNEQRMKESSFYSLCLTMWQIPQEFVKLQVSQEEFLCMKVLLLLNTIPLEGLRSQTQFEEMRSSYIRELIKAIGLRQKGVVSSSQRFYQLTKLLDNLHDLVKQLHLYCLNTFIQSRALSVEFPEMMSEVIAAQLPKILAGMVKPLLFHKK
Description: Progesterone-receptor-antagonistic action in stably transfected SK-N-MC cells, MTV-LUC reporter (PR-A). In kind it is cell-based. To be noted: antagonistic potency vs 0.1 nmol/l promegestone, 24 hours, luciferase. As to the method:
Progesterone-Receptor-Antagonistic Action in Stable Transfectants of Human Neuroblastoma Cells (SK-N-MC Cells) with the Human Progesterone A or Progesterone B Receptor and an MTV-LUC Reporter Construct
SK-N-MC cells (human neuroblastoma cells) that have been stably transfected with plasmids that express the human progesterone receptor B (pRChPR-B-neo) or the human progesterone receptor A (pRChPR-A-neo) and a reporter construct (pMMTV-LUC), were incubated for 24 hours either in the absence (negative control) or in the presence of increasing amounts of the particular test compound (0.01 nmol/l, 0.1 nmol/l, 1 nmol/l, 10 nmol/l, 100 nmol/l and 1 μmol/l), to determine the agonistic efficacy. As positive control of reporter gene induction, the cells were treated with the synthetic gestagen promegestone (0.01 nmol/l, 0.1 nmol/l, 1 nmol/l, 10 nmol/l, 100 nmol/l and 1 μmol/l). For determination of the antagonistic activity, the cells were treated with 0.1 nmol/l promegestone and additionally with increasing amounts of the particular test compound (0.01 nmol/l, 0.1 nmol/l, 1 nmol/l, 10 nmol/l, 100 nmol/l and 1 μmol/l). The activity of the reporter gene LUC (LUC=luciferase) was determined in the cell lysates and was measured as RLU (relative light units). All measured values are given as % efficacy and as EC50 or IC50 concentrations.
For `C[C@]12C[C@H](c3ccc(C(=O)Nc4ccccc4)cc3)C3=C4CCC(=O)C=C4CC[C@H]3[C@@H]1CC[C@@]2(O)C(F)(F)C(F)(F)F` [Example 22, 4-[(11β,17β)-17-hydroxy-3-oxo-17-(pentafluoroethyl)estra-4,9-dien-11-yl]-N-phenylbenzamide], it took 39 nM to reach half-maximal inhibition (IC50).

Compound `C[C@]12C[C@H](c3ccc(C(=O)NCc4ccccc4)cc3)C3=C4CCC(=O)C=C4CC[C@H]3[C@@H]1CC[C@@]2(O)C(F)(F)C(F)(F)F` [Example 34, N-benzyl-4-[(11β,17β)-17-hydroxy-3-oxo-17-(pentafluoroethyl)estra-4,9-dien-11-yl]benzamide] yielded a half-maximal inhibitory concentration (IC50) of 14.4 nM.

The compound `C[C@]12C[C@H](c3ccc(C(=O)NCc4ccncc4)cc3)C3=C4CCC(=O)C=C4CC[C@H]3[C@@H]1CC[C@@]2(O)C(F)(F)C(F)(F)F` [Example 21, 4-[(11β,17β)-17-hydroxy-3-oxo-17-(pentafluoroethyl)estra-4,9-dien-11-yl]-N-(pyridin-4-ylmethyl)benzamide] gave an IC50 of 51 nM.

With `COc1cccc(NC(=O)c2ccc([C@H]3C[C@@]4(C)[C@@H](CC[C@@]4(O)C(F)(F)C(F)(F)F)[C@@H]4CCC5=CC(=O)CCC5=C43)cc2)c1` [Example 24, 4-[(11β,17β)-17-hydroxy-3-oxo-17-(pentafluoroethyl)estra-4,9-dien-11-yl]-N-(3-methoxyphenyl)benzamide], the IC50 is 3.7 nM.

On to `COc1ccc(NC(=O)c2ccc([C@H]3C[C@@]4(C)[C@@H](CC[C@@]4(O)C(F)(F)C(F)(F)F)[C@@H]4CCC5=CC(=O)CCC5=C43)cc2)cc1` [Example 25, 4-[(11β,17β)-17-hydroxy-3-oxo-17-(pentafluoroethyl)estra-4,9-dien-11-yl]-N-(4-methoxyphenyl)benzamide], for which the IC50 is 11.4 nM.

In the case of `CCNC(=O)c1ccc([C@H]2C[C@@]3(C)[C@@H](CC[C@@]3(O)C(F)(F)C(F)(F)F)[C@@H]3CCC4=CC(=O)CCC4=C32)cc1` [Example 19, N-ethyl-4-[(11β,17β)-17-hydroxy-3-oxo-17-(pentafluoroethyl)estra-4,9-dien-11-yl]benzamide], it took 1.4 nM to reach half-maximal inhibition (IC50).

Take `C[C@]12C[C@H](c3ccc(C(=O)NCCc4ccccn4)cc3)C3=C4CCC(=O)C=C4CC[C@H]3[C@@H]1CC[C@@]2(O)C(F)(F)C(F)(F)F` [Example 61, 4-[(11β,17β)-17-hydroxy-3-oxo-17-(pentafluoroethyl)estra-4,9-dien-11-yl]-N-[2-(pyridin-2-yl)ethyl]benzamide]: the IC50 stood at 1.6 nM.

The compound `C[C@]12C[C@H](c3ccc(C(=O)NCc4cccc(Cl)c4)cc3)C3=C4CCC(=O)C=C4CC[C@H]3[C@@H]1CC[C@@]2(O)C(F)(F)C(F)(F)F` [Example 56, N-(3-chlorobenzyl)-4-[(11β,17β)-17-hydroxy-3-oxo-17-(pentafluoroethyl)estra-4,9-dien-11-yl]benzamide] registered an IC50 of 2.3 nM.

Consider `COC(=O)c1cccc(NC(=O)c2ccc([C@H]3C[C@@]4(C)[C@@H](CC[C@@]4(O)C(F)(F)C(F)(F)F)[C@@H]4CCC5=CC(=O)CCC5=C43)cc2)c1` [Example 57, methyl-3-({4-[(11β,17β)-17-hydroxy-3-oxo-17-(pentafluoroethyl)estra-4,9-dien-11-yl]benzoyl}amino)benzoate], for which the IC50 came out at 0.8 nM.

The compound `CC(=O)NCCNC(=O)c1ccc([C@H]2C[C@@]3(C)[C@@H](CC[C@@]3(O)C(F)(F)C(F)(F)F)[C@@H]3CCC4=CC(=O)CCC4=C32)cc1` [Example 37, N-(2-acetamidoethyl)-4-[(11β,17β)-17-hydroxy-3-oxo-17-(pentafluoroethyl)estra-4,9-dien-11-yl]benzamide] came in with an IC50 of 385 nM.

For orientation: IC50 means the concentration at which inhibition is half-maximal. A higher IC50 goes with a need for much substance.
